{"source": "patent US9782346B2", "about": "“Biodegradable ocular implant” (Nanyang Technological University, priority 2010, dated 2017)", "key": {"[1]": {"assay": "Sustained drug release from PLC films / sandwich constructions", "assay_type": "physicochemical"}, "rabbit eyes": {"system": "rabbit eyes", "conditions": "in vivo", "description": "We obtained approval from the SingHealth Institute Animal Care and Use Committee (IACUC Singhealth Approval Number 2009/SHS/478) and all procedures were performed in accordance with the ARVO Statement for the Use of Animals in Ophthalmic and Vision Research. Nine New Zealand white rabbits (18 eyes) were used aged 4-6 months old with a weight range of 2-2.5 kg each. Each rabbit was anesthetized with intraperitoneal injection of ketamine hydrochloride (35-50 mg/kg) and Xylazil (5-10 mg/kg). After the animal had been adequately anaesthetized, the eye was cleaned with povidone-iodine (10%) and draped with sterile cloth. […]\nVisual inspection of the operated eyes was conducted daily following surgery. […] All clinical and ocular observations were recorded on a chart. The test animals were also monitored for any gross changes such as eye discharge, squinting and, ocular discomfort. […]\nAnterior segment photographs and anterior segment optical coherence tomography (AS-OCT, Visante OCT, Carl Zeiss Meditec Inc., Germany) of the implanted eyes was performed at monthly intervals. […] The site of conjunctival elevation from the microfilm was determined by the location of a light reflex over the conjunctiva during image acquisition. In cases where the light reflex was absent, the observer manually assessed the surface of the microfilm to select a radius that contained elevation. […]"}}}
{"molecule": "CCCC(CCC)C(=O)O", "note": "[valproic acid]", "values": [{"measurement": "Duration of controlled release", "setting": "[1]; 1% and 2% sandwich constructions (multi-layered implant)", "value": 20, "unit": "days"}]}
{"molecule": "CC(C)OC(=O)CCC/C=C\\C[C@@H]1[C@@H](CC[C@@H](O)CCc2ccccc2)[C@H](O)C[C@@H]1O", "note": "[Latanoprost]", "values": [{"measurement": "Duration of delivery", "setting": "[1]; from PLC films", "value": 10, "unit": "days"}]}
{"molecule": "C[C@]12C=CC(=O)C=C1CC[C@@H]1[C@@H]2[C@@H](O)C[C@@]2(C)[C@H]1CC[C@]2(O)C(=O)CO", "note": "[Prednisolone]", "values": [{"measurement": "Duration of controlled release", "setting": "[1]; from PLC (70/30 copolymer of PLA and PCL)", "value": 100, "unit": "days"}]}
{"molecule": "Poly(d,l-lactide-co-e-caprolactone) [PLC70/30]", "values": [{"measurement": "mean increase in vascularity grade", "setting": "rabbit eyes", "value": "15±0.6", "unit": "%"}, {"measurement": "mean percent increase in ocular score", "setting": "rabbit eyes", "value": "15±0.6", "unit": "%"}]}
